Data reported in PMC5739799 (Oncotarget, 2017).
“And” between values parts separate entries of the source, which are not always exact repeats. Equal values may be shown once.

Experiments:
[1] = system: H129 hepatoma; assay: Syngenic orthotopic H129 hepatoma mouse model, survival; type: in vivo, C3H/HeN mice; details: sorafenib 30 mg/kg/day oral, separate study; vehicle 28 days
From the text: C3H/HeN mice aged 10–12 weeks with an average weight of 25 g were used for this model and were obtained from Charles River (Sulzfeld, Germany). Experiments were initiated after an acclimatizing period of at least 8 days. Syngenic murine H129 hepatoma cells (obtained from Dr. V. Schmitz, University of Bonn, Germany) were cultivated in RPMI medium, containing 10% fetal calf serum (FCS) and 5% glutamine. Cells were harvested in a subconfluent state (70–80%), prepared for injection of 5×10^4 cells/20 μL in growth factor-free Matrigel, and transplanted in the left upper liver lobe. Animals with surgical failures were marked and excluded from the experiment. Treatment was initiated 4–5 days after transplantation. One set of mice received regorafenib 10 mg/kg once daily, vehicle solution once daily, or no treatment (n=8 per treatment group). […] Treatments were given orally via gavage. The vehicle solution contained 10% Transcutol, 10% Cremophor, and 80% 0.9% NaCl. Animals were weighed twice a week and monitored daily for behavior and wound healing. […] Due to ascites formation in the peritoneum (a symptom of the disease), body weight was not used as part of the assessment. Animals were dissected to assess the cause of death unless they had died in their cage overnight.
(§1) In the syngenic orthotopic H129 model, differences in survival times between groups were analyzed for significance using log-rank tests. Analysis of tumor volumes of the HCC-PDX models was performed with log2-transformed values on defined days of measurement based on the assumption of their log-normal distribution. […] All respective statistical test results were derived from a common linear model that allows for individual variances in the different groups. The adjustment for multiple testing was carried out using Šidák correction at a significance level of 0.05. […] Bead-based western data were analyzed (described in [15]) using the MEV 4.8.1 software package. […]

[2] = system: HCC-PDX model 5; assay: Patient-derived HCC xenograft model 5, tumor growth; type: in vivo, BALB/c nude mice
Method: (§2) The PDX studies were carried out by WuXi AppTec (Shanghai, China). HCC-PDX models were originally established from surgically resected tumor tissue that was implanted in 6–8-week-old female BALB/c nude mice. Animal studies were performed according to the guidelines approved by the Institutional Animal Care and Use Committee of Wuxi AppTec, which follow the guidance of the Association for the Assessment and Accreditation of Laboratory Animal Care. Animals were routinely monitored for their health status and their body weights. Treatment was suspended and/or doses reduced at body weight losses >10%. Animals were euthanized when the tumor size exceeded 2000 mm^3. Pieces from tumor xenografts (∼30 mm^3) from passages 4–8 (ST1) were implanted subcutaneously at the right flank, and tumors were grown to an average size of about 150–200 mm^3. […] Tumor size was measured twice weekly using caliper measurements. Tumor volume (mm^3) was calculated using the formula 0.5 a × b^2, where a and b are the long and short diameters of the tumor, respectively. TGI was assessed either by calculating the ratio of the mean tumor volumes of treated and control groups or by determination of the RTV, which relates tumor volumes at any given day of treatment to the volume at the first treatment day.
(§3) In the syngenic orthotopic H129 model, differences in survival times between groups were analyzed for significance using log-rank tests. Analysis of tumor volumes of the HCC-PDX models was performed with log2-transformed values on defined days of measurement based on the assumption of their log-normal distribution. […] All respective statistical test results were derived from a common linear model that allows for individual variances in the different groups. The adjustment for multiple testing was carried out using Šidák correction at a significance level of 0.05. Back transformation of the mean difference of log2-transformed tumor volumes led to the ratios of the compared groups, whereby ratios of 1 reflect no difference in tumor volumes and ratios below or above 1 reflect smaller or larger tumor volumes, respectively, of the respective second group. The analyses of RTV were carried out in a similar fashion without the log2 transformation of values. Bead-based western data were analyzed (described in [15]) using the MEV 4.8.1 software package. A p-value <0.05 was regarded as significant. All statistical analyses were performed with SAS® 9.4 [34].

[3] = system: HCC-PDX model 10; assay: Patient-derived HCC xenograft model 10, tumor growth; type: in vivo, BALB/c nude mice
Method: as §2, §3

[4] = system: HCC-PDX model 20; assay: Patient-derived HCC xenograft model 20, tumor growth; type: in vivo, BALB/c nude mice
Method: as §2, §3

[5] = system: HCC-PDX model 61; assay: Patient-derived HCC xenograft model 61, tumor growth; type: in vivo, BALB/c nude mice
Method: as §2, §3

[6] = system: HCC-PDX model 101; assay: Patient-derived HCC xenograft model 101, tumor growth; type: in vivo, BALB/c nude mice
Method: as §2, §3

[7] = system: HCC-PDX model 141; assay: Patient-derived HCC xenograft model 141, tumor growth; type: in vivo, BALB/c nude mice
Method: as §2, §3

[8] = system: HCC-PDX model 159; assay: Patient-derived HCC xenograft model 159, tumor growth; type: in vivo, BALB/c nude mice
Method: as §2, §3

[9] = system: HCC-PDX model 189; assay: Patient-derived HCC xenograft model 189, tumor growth; type: in vivo, BALB/c nude mice
Method: as §2, §3

[10] = system: 10 patient-derived HCC xenograft (HCC-PDX) models; assay: Panel of 10 HCC-PDX models, overall response and tolerability; type: in vivo, BALB/c nude mice
Method: as §2, §1

[11] = Steady-state plasma pharmacokinetics after oral dosing for 5 days; type: in vivo, BALB/c nu/nu mice
Method: Pharmacokinetic studies were performed in 6–8-week-old female BALB/c nu/nu mice (Charles River, Sulzfeld, Germany). […] Parent compounds and metabolites M-2 and M-5 were analyzed in plasma samples using validated bioanalytical liquid chromatography-tandem mass spectrometry (LC-MS/MS) methods according to an experimental protocol described earlier. PK parameters, namely the AUC(0–24)ss and Cmax, were calculated from plasma concentrations using a non-compartmental analysis.

[12] = day 28, R 10 / S 30 mg/kg/day oral starting dose
[13] = plasma analyte after oral sorafenib tosylate 30 mg/kg/day (21.9 mg/kg/day sorafenib) for 5 days

SMILES: CNC(=O)c1cc(Oc2ccc(NC(=O)Nc3ccc(Cl)c(C(F)(F)F)c3)cc2)ccn1 [Sorafenib]
- Median survival, days (95% CI) [1]: 33 days and 33 (27, 35) days
- Mean TV [2, 12]: 134.44 mm^3
- log TV Differences of least square-means, compound vs vehicle ([2]; day 28, log2-transformed TV): -24,884
- RTV Differences of least square-means, compound vs vehicle ([2]; day 46): -54,048
- RTV ([2]; end of study, day 46): 1.74
- Mean TV ([3]; day 12, R 10 / S 30 mg/kg/day oral): 607.16 mm^3
- log TV Differences of least square-means, compound vs vehicle ([3]; day 12, log2-transformed TV): -17,966
- RTV ([3]; end of study (RTV analysis day R 40, S 30)): 13.39
- Mean TV ([4]; day 21, R 10 / S 30 mg/kg/day oral): 737.74 mm^3
- log TV Differences of least square-means, compound vs vehicle ([4]; day 21, log2-transformed TV): -0.3573
- RTV Differences of least square-means, compound vs vehicle ([4]; day 42): -12.2
- RTV ([4]; end of study, day 42): 10.55
- Mean TV ([5]; day 25, R 10 / S 30 mg/kg/day oral): 424.86 mm^3
- RTV ([5]; end of study (RTV analysis day R 42, S 36)): 5.28
- Mean TV [6, 12]: 416.97 mm^3
- RTV ([6]; end of study, day 42): 5.37
- Mean TV [7, 12]: 139.51 mm^3
- RTV ([7]; end of study, day 42): 2.16
- Mean TV [8, 12]: 1144.22 mm^3
- log TV Differences of least square-means, compound vs vehicle ([8]; day 28, log2-transformed TV): -0.3943
- RTV ([8]; end of study, day 35): 9.73
- RTV Differences of least square-means, compound vs vehicle ([9]; day 21): -29,028
- Mean TV ([9]; day 21, R 10 / S 30 mg/kg/day oral starting dose): 351.96 mm^3
- log TV Differences of least square-means, compound vs vehicle ([9]; day 21, log2-transformed TV): -10,604
- RTV ([9]; end of study, day 21): 2.66
- Models with significant tumor growth inhibition ([10]; 10 HCC-PDX models, regorafenib 10, sorafenib 30 mg/kg/day oral): 7/10
- Dose reductions and/or treatment interruptions ([10]; HCC-PDX models, sorafenib compared with regorafenib): more often
- AUC(0–24)ss (percent of total) ([11]; after oral sorafenib tosylate 30 mg/kg/day for 5 days, total = molar sum of sorafenib and M-2): 99% of total
- AUC(0–24)ss [11, 13]: 177 µM·h
- Cmax [11, 13]: 23.9 µM
- Estimated Cmax ([11]; sorafenib 30 mg/kg/day related to free base (HCC-PDX study dose), assuming dose linearity): 33.6 µM
- Cumulated maximum concentration (Cmax) ([11]; sorafenib tosylate 30 mg/kg once daily for 5 days, parent plus metabolites): 24.5 µM
